Like-named read-outs stand apart in the source and are kept apart here.
Tests used:
[1] = tested on: HBeAg level (surrogate marker for cccDNA) in HepDES19 cells; experiment: Engineered HepDES19 primary screen assay (HBeAg as surrogate marker for cccDNA); format: cell-based, HBV
Description: The assay was employed to screen for novel cccDNA inhibitors. HepDES19 is a cccDNA-producing cell line. In this cell line, HBeAg in the cell culture supernatant as surrogate marker, as HBeAg production depends on cccDNA level and activity. HepDES19 is an engineered cell line which contains a 1.1 unit length HBV genome, and pgRNA transcription from the transgene is controlled by Tetracycline (Tet). In the absence of Tet, pgRNA transcription will be induced, but HBV e antigen (HBeAg) could not be produced from this pgRNA due to very short leader sequence before the HBeAg start codon and the start codon is disrupted. Only after cccDNA is formed, the missing leader sequence and start codon mutation would be restored from the 3′-terminal redundancy of pgRNA, and then HBeAg could be synthesized. Therefore, HBeAg could be used as a surrogate marker for cccDNA (Zhou, T. et al., Antiviral Res. (2006), 72(2), 116-124; Guo, H. et al., J. Virol. (2007), 81(22), 12472-12484).
HepDES19 cells were seeded at 2×10^6 cells per T150 flask and cultured with the culture medium (Dulbecco's Modified Eagle Medium: Nutrient Mixture F-12 [DMEM-F12, Gibco Cat. 11320-82], 10% Fetal Bovine Serum [FBS, Clontech Cat. 631101], 0.1 mM Non-Essential Amino Acids Solution [NEAA, Gibco Cat. 11140-050], 50 μg/mL Penicillin-Streptomycin [PS, Invitrogen Cat. 15140-163], 500 μg/mL Geneticin [G418, Invitrogen Cat. 10131-027]) containing 3 μg/mL Tet (Sigma, Cat. 87128) for 5 days. Cells were then seeded at 4×10^6 cells per T150 in the same culture medium as described above in the absence of Tet for 8 days. Cells were then harvested and frozen at density of 2×10^6 cells per mL. For compound testing, the frozen cells were thawed and seeded into 96-well plates at a density of 6×10^4 cells per well. At 24 hrs after seeding, half log serial dilutions of compounds made with Dimethyl sulfoxide (DMSO, Sigma, Cat. D2650) were further diluted with the same culture medium as described above before they were added to the cells to reach desired final compound concentrations and 1% DMSO concentration. Plates were then incubated at 37° C. for another 5 days before measurement of HBeAg level and cell viability. Intracellular HBeAg level were measured with enzyme-linked immunosorbent assay (ELISA) kit (Shanghai Kehua Diagnostic Medical Products Co., Ltd). Cell viability was assessed using Cell Counting Kit-8 (Donjindo, Cat. CK04-20). IC50 values were derived from the dose-response curve using 4 parameter logistic curve fit method.
The compounds of the present invention were tested for their capacity to inhibit extracellular HBeAg level as described herein.

[2] = tested on: HBV in primary human hepatocytes (PHH); experiment: Cryopreserved primary human hepatocytes (PHH) HBV infection assay; format: cell-based; conditions: HBV-infected cryopreserved PHH, 9 days post-compound treatment, extracellular HBsAg by CLIA, read-out: HBsAg IC50
Experimental: This assay is used to confirm the anti-HBV effect of the compounds in HBV PHH infection assay. Cryopreserved PHH (BioreclamationIVT, Lot YJM) was thawed at 37° C. and gently transferred into pre-warmed InVitroGRO HT medium (BioreclamationIVT, Cat. S03317). The mixture was centrifuged at 70 relative centrifugal force (RCF) for 3 minutes at RT, and the supernatant was discarded. Pre-warmed InVitroGRO CP medium (BioreclamationIVT, Cat #S03316) was added to the cell pellet to gently re-suspend cells. The cells were seeded at the density of 5.8×10^4 cells per well to collagen I coated 96-well plate (Gibco, Cat. A1142803) with the InVitroGRO CP medium. All plates were incubated at 37° C. with 5% CO2 and 85% humidity.
At 20 hours after plating, the medium was changed to PHH culture medium (Dulbecco's Modified Eagle Medium (DMEM)/F12 (1:1) (Gibco, Cat. 11320-033), 10% fetal bovine serum (Gibco Cat. 10099141), 100 U/mL penicillin, 100 μg/mL streptomycin (Gibco, Cat. 151401-122), 5 ng/mL human epidermal growth factor (Invitrogen Cat. PHG0311L), 20 ng/mL dexamethasone (Sigma, Cat. D4902) and 250 ng/mL human recombinant insulin (Gibco, Cat. 12585-014)). And the cells were incubated at 37° C. with 5% CO2 and 85% humidity for 4 hours. The medium was then changed to pre-warmed PHH culture medium containing 4% polyethylene glycol (PEG) MW8000 (Sigma, Cat. P1458-50ML) and 1% DMSO (Sigma, Cat. D2650). 5.8×10^6 genomic equivalents of HBV were added into the medium.
At 24 hours post-infection, the cells were gently washed with PBS and refreshed with PHH culture medium supplemented with 1% DMSO, and 0.25 mg/mL Matrix gel (Corning, Cat. 356237) at 200 μL per well. All plates were immediately placed in at 37° C. CO2 incubator.
24 hours later, serial dilutions of compounds made with DMSO were further diluted with the same culture medium (PHH culture medium supplemented with 1% DMSO and 0.25 mg/mL Matrix gel as described above) before they were added to the cells to reach desired final compound concentrations and 1% DMSO concentration. The medium containing the compounds were refreshed every three days.
At 9 days post-compound treatment, extracellular HBsAg level were measured with Chemiluminescence Immuno Assay (CLIA) kit (Autobio, HBsAg Quantitative CLIA). Extracellular HBV DNA was extracted by MagNA Pure 96 system (Roche) and then determined by quantitative PCR with the following primers and probe: […]
HBsAg IC50 and HBV DNA IC50 values were derived from the dose-response curve using 4 parameter logistic curve fit method. The compounds of formula (I) have HBsAg IC50<20 μM, particularly <1 μM; and HBV DNA IC50<50 μM. Test results of the compounds of this invention as well as the reference compounds in Cryopreserved PHH assay are given in Table 2 and Table 3.

[3] = Hepatitis B virus, HepDES19, 120 h, read-out: IC50 (HBeAg) in HepDES19 primary screen assay, HepDES19 cells, 5 days incubation with compound, HBeAg by ELISA
[4] = Hepatitis B virus, Hepatocyte, 216 h
[5] = read-out: IC50 (HBeAg) in HepDES19 primary screen assay, HepDES19 cells, 5 days incubation with compound, HBeAg by ELISA

| Compound | IC50 [1, 3] [nM] | IC50 [2, 4] [nM] | IC50 [1, 5] [nM] | IC50 [2] [nM] |
| --- | --- | --- | --- | --- |
| CCOC(=O)C1CC(OCCOc2ccc(-c3cc(=O)c4cccc(Cl)c4o3)cc2)C1 (stereo not shown) [Example 2, Ethyl 3-[2-[4-(8-chloro-4-oxo-chromen-2-yl)phenoxy]ethoxy]cyclobutanecarboxylate] | 2480 | 190 |  |  |
| O=c1cc(-c2ccc(OCCO[C@H]3C[C@@H](C(=O)O)C3)c(Cl)c2)oc2c(Cl)c(C(F)(F)F)ccc12 [Example 73, Cis-3-[2-[2-chloro-4-[8-chloro-4-oxo-7-(trifluoromethyl)chromen-2-yl]phenoxy]ethoxy]cyclobutanecarboxylic acid] | 15400 | 6770 |  |  |
| CCOc1cc(OCCOC2CC(C(=O)O)C2)ccc1-c1cc(=O)c2cccc(Cl)c2o1 (stereo not shown) [Example 51, 3-[2-[4-(8-chloro-4-oxo-chromen-2-yl)-3-ethoxy-phenoxy]ethoxy]cyclobutanecarboxylic acid] | 860 | 940 |  |  |
| O=C(O)C1CC(OCCOc2ccc(-c3cc(=O)c4ccc(F)c(Cl)c4o3)cc2)C1 (stereo not shown) [Example 15, 3-[2-[4-(8-chloro-7-fluoro-4-oxo-chromen-2-yl)phenoxy]ethoxy]cyclobutanecarboxylic acid] | 10300 | 280 |  |  |
| O=C(O)C1CC(OCCOc2ccc(-c3cc(=O)c4ccc(Cl)c(Cl)c4o3)cc2)C1 (stereo not shown) [Example 21, 3-[2-[4-(7,8-dichloro-4-oxo-chromen-2-yl)phenoxy]ethoxy]cyclobutanecarboxylic acid] | 290 | 5100 |  |  |
| O=c1c(O)c(-c2ccc(OCCO[C@H]3C[C@@H](C(=O)O)C3)cc2)oc2c(Cl)cccc12 [Example 55, Cis-3-[2-[4-(8-chloro-3-hydroxy-4-oxo-chromen-2-yl)phenoxy]ethoxy]cyclobutanecarboxylic acid] | 120 | 9500 |  |  |
| O=c1cc(-c2ccc(OCCO[C@H]3C[C@@H](C(=O)O)C3)cc2)oc2c(Cl)ccc(O)c12 [Example 24, Cis-3-[2-[4-(8-chloro-5-hydroxy-4-oxo-chromen-2-yl)phenoxy]ethoxy]cyclobutanecarboxylic acid] | 1140 | 4830 |  |  |
| O=c1cc(-c2ccc(OCCO[C@H]3C[C@@H](C(=O)O)C3)nc2)oc2c(Cl)cccc12 (single isomer, unassigned) [Example 38-B, 3-[2-[[5-(8-chloro-4-oxo-chromen-2-yl)-2-pyridyl]oxy]ethoxy]cyclobutanecarboxylic acid] |  |  | 760 | 880 |
| O=C(O)C1CC(OCCOc2ccc(-c3cc(=O)c4ccc(C(F)(F)F)c(Cl)c4o3)cc2)C1 (stereo not shown) [Example 69, 3-[2-[4-[8-chloro-4-oxo-7-(trifluoromethyl)chromen-2-yl]phenoxy]ethoxy]cyclobutanecarboxylic acid] | 10700 | 2010 |  |  |
| O=c1cc(-c2ccc(OCCO[C@H]3C[C@H](C(=O)O)C3)cc2)oc2c(Cl)cccc12 [Example 1-B, trans-3-[2-[4-(8-chloro-4-oxo-chromen-2-yl)phenoxy]ethoxy]cyclobutanecarboxylic acid] | 140 | 80 |  |  |
| O=C(O)c1cccc(OCC(O)COc2ccc(-c3cc(=O)c4cccc(Cl)c4o3)cc2)c1 (stereo not shown) [Example 14, 3-[3-[4-(8-chloro-4-oxo-chromen-2-yl)phenoxy]-2-hydroxy-propoxy]benzoic acid] | 20400 | 19200 |  |  |
| CCOC(=O)C1CC1OCCOc1ccc(-c2cc(=O)c3cccc(Cl)c3o2)cc1 (single isomer, unassigned) [Example 4-A, ethyl 2-[2-[4-(8-chloro-4-oxo-chromen-2-yl)phenoxy]ethoxy]cyclopropanecarboxylate] |  |  | 530 | 6340 |
| O=c1cc(-c2ccc(OCCO[C@H]3C[C@@H](C(=O)O)C3)cc2)oc2c(Cl)ccc(Cl)c12 [Example 29, Cis-3-[2-[4-(5,8-dichloro-4-oxo-chromen-2-yl)phenoxy]ethoxy]cyclobutanecarboxylic acid] | 210 | 900 |  |  |
| O=C(O)[C@H]1C[C@H]1OCCOc1ccc(-c2cc(=O)c3cccc(Cl)c3o2)cc1 (single isomer, unassigned) [Example 5-B, 2-[2-[4-(8-chloro-4-oxo-chromen-2-yl)phenoxy]ethoxy]cyclopropanecarboxylic acid] |  | 1780 | 11200 |  |
| O=c1cc(-c2ccc(OCCO[C@H]3C[C@@H](C(=O)O)C3)cc2)oc2c(Cl)ccc(C3CC3)c12 [Example 30, Cis-3-[2-[4-(8-chloro-5-cyclopropyl-4-oxo-chromen-2-yl)phenoxy]ethoxy]cyclobutanecarboxylic acid] | 130 | 7290 |  |  |
| CC(COc1ccc(-c2cc(=O)c3cccc(Cl)c3o2)cc1)OC1CC(C(=O)O)C1 (stereo not shown) [Example 12, 3-[2-[4-(8-chloro-4-oxo-chromen-2-yl)phenoxy]-1-methyl-ethoxy]cyclobutanecarboxylic acid] | 1070 | 210 |  |  |
| O=C(O)COC1CC(COc2ccc(-c3cc(=O)c4cccc(Cl)c4o3)cc2)C1 (stereo not shown) [Example 8, 2-[3-[[4-(8-chloro-4-oxo-chromen-2-yl)phenoxy]methyl]cyclobutoxy]acetic acid] | 1340 | 120 |  |  |
| O=C(O)C1CCC(OCCOc2ccc(-c3cc(=O)c4cccc(Cl)c4o3)cc2)C1 (stereo not shown) [Example 6, 3-[2-[4-(8-chloro-4-oxo-chromen-2-yl)phenoxy]ethoxy]cyclopentanecarboxylic acid] | 1950 | 860 |  |  |
| N#Cc1ccc2c(=O)cc(-c3ccc(OCCOC4CC(C(=O)O)C4)cc3)oc2c1Cl (single isomer, unassigned) [Example 23-B, 3-[2-[4-(8-chloro-7-cyano-4-oxo-chromen-2-yl)phenoxy]ethoxy]cyclobutanecarboxylic acid] |  | 6890 |  |  |

From patent US12012390B2, “Flavone compounds for the treatment and prophylaxis of hepatitis B virus disease” (priority 2018, dated 2024)
